Read-outs that look alike come from different tables or passages of the source.

From patent publication US10206394B2, “Herbicidal compounds” (Syngenta Participations AG, priority 2014, dated 2019) come the findings set out here.

What all share (assay): Glasshouse assay for herbicidal activity (pre- and post-emergence), percentage phytotoxicity
Common to all, as to type: in vivo

For test [1], the system named is Lolium perenne (LOLPE). To be noted: Lolium perenne, 250 g/ha, visual assessment (100%=total damage, 0%=no damage). A digest of the protocol:
(§1)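 Potted test plants in standard soil received the compound pre-emergence (day 1) or post-emergence (about day 12). Evaluation: visual damage score from 0% (none) to 100% (total), 15 days after application post-emergence, 20 days pre-emergence.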

Test [2] deals with Avena fatua (AVEFA). To be noted: Avena fatua, 250 g/ha, visual assessment (100%=total damage, 0%=no damage). Put shortly:
as §1

For test [3], the system named is Echinochloa crus-galli (ECHCG). The note with it: Echinochloa crus-galli, 250 g/ha, visual assessment (100%=total damage, 0%=no damage). A digest of the protocol:
as §1

Test [4] concerns Alopecurus myosuroides (ALOMY). The note with it: Alopecurus myosuroides, 250 g/ha, visual assessment (100%=total damage, 0%=no damage). Put shortly:
as §1

The mark [5] stands for this setting: post-emergence, 360 h, post-emergence, 15 DAA, read-out: Post-emergence herbicidal activity (percentage phytotoxicity) LOLPE POST.
Setting [6] is: pre-emergence, 480 h, pre-emergence, 20 DAA, read-out: Pre-emergence herbicidal activity (percentage phytotoxicity) LOLPE PRE.
Setting [7] is: post-emergence, 360 h, post-emergence, 15 DAA, read-out: Post-emergence herbicidal activity (percentage phytotoxicity) AVEFA POST.
The mark [8] stands for this setting: pre-emergence, 480 h, pre-emergence, 20 DAA, read-out: Pre-emergence herbicidal activity (percentage phytotoxicity) AVEFA PRE.
Setting [9] is: post-emergence, 360 h, post-emergence, 15 DAA, read-out: Post-emergence herbicidal activity (percentage phytotoxicity) ECHCG POST.
The mark [10] stands for this setting: pre-emergence, 480 h, pre-emergence, 20 DAA, read-out: Pre-emergence herbicidal activity (percentage phytotoxicity) ECHCG PRE.
Where [11] appears, read: post-emergence, 360 h, post-emergence, 15 DAA, read-out: Post-emergence herbicidal activity (percentage phytotoxicity) ALOMY POST.
[12] abbreviates: pre-emergence, 480 h, pre-emergence, 20 DAA, read-out: Pre-emergence herbicidal activity (percentage phytotoxicity) ALOMY PRE.

Regarding `Cc1cc(C)c(C2C(=O)CC(CC(=O)NCc3ccc(C(F)(F)F)cc3)C2=O)c(C)c1` (stereo not shown) [Compound B15], the pest or weed control at 250 g/ha in test [1] (setting [5]) is 90%; in test [1] (setting [6]) it was 100%; in test [2] (setting [7]) it was 90%; in test [2] (setting [8]), 80%; in test [3] (setting [9]), 90%; in test [3] (setting [10]), 90%. In addition, the pest or weed control at 250 g/ha in test [4] (setting [11]) was 70%; in test [4] (setting [12]) it was 80%.

`Cc1cc(C)c(C2C(=O)CC(CC(=O)NCc3ccc(F)cc3)C2=O)c(C)c1` (stereo not shown) [Compound B16]: the pest or weed control at 250 g/ha stood at 90% in test [1] (setting [5]); 90% in test [1] (setting [6]); 70% in test [2] (setting [7]); 30% in test [2] (setting [8]); 90% in test [3] (setting [9]); 90% in test [3] (setting [10]). The pest or weed control at 250 g/ha in test [4] (setting [11]) is 70%; in test [4] (setting [12]) it was 80%.

Consider `Cc1cc(C)c(C2C(=O)CC(CC(=O)NCc3ccccc3Cl)C2=O)c(C)c1` (stereo not shown) [Compound B17], for which the pest or weed control at 250 g/ha amounted to 70% in test [1] (setting [5]); 90% in test [1] (setting [6]); 50% in test [2] (setting [7]); 0% in test [2] (setting [8]); 70% in test [3] (setting [9]); 90% in test [3] (setting [10]). For the same compound, the pest or weed control at 250 g/ha is 40% in test [4] (setting [11]) and 20% in test [4] (setting [12]).

For `COc1ccc(CNC(=O)CC2CC(=O)C(c3c(C)cc(C)cc3C)C2=O)cc1` (stereo not shown) [Compound B18], the pest or weed control at 250 g/ha amounted to 100% in test [1] (setting [5]); 100% in test [1] (setting [6]); 90% in test [2] (setting [7]); 80% in test [2] (setting [8]); 90% in test [3] (setting [9]); 90% in test [3] (setting [10]). Moreover, the results for the pest or weed control at 250 g/ha in test [4] (setting [11]) and in test [4] (setting [12]) were 80% and 70%, respectively.

For `Cc1cc(C)c(C2C(=O)CC(CC(=O)NCc3ccccc3C(F)(F)F)C2=O)c(C)c1` (stereo not shown) [Compound B19], the pest or weed control at 250 g/ha in test [1] (setting [5]) was determined as 70%; in test [1] (setting [6]), 80%; in test [2] (setting [7]), 50%; in test [2] (setting [8]), 20%; in test [3] (setting [9]) it was 70%; in test [3] (setting [10]) it was 90%. Further, the pest or weed control at 250 g/ha in test [4] (setting [11]) stood at 50%; in test [4] (setting [12]) it was 10%.

Turning to `Cc1cc(C)c(C2C(=O)CC(CC(=O)NCc3cccc([N+](=O)[O-])c3)C2=O)c(C)c1` (stereo not shown) [Compound B20], the pest or weed control at 250 g/ha in test [1] (setting [5]) turned out to be 40%; in test [1] (setting [6]), 70%; in test [2] (setting [7]) it was 80%; in test [2] (setting [8]), 90%; in test [3] (setting [9]), 90%; in test [3] (setting [10]) it was 90%. Further, the pest or weed control at 250 g/ha in test [4] (setting [11]) is 70%; in test [4] (setting [12]) it was 80%.

In the case of `Cc1cc(C)c(C2C(=O)CC(CC(=O)NCc3cccc(F)c3)C2=O)c(C)c1` (stereo not shown) [Compound B21], the pest or weed control at 250 g/ha in test [1] (setting [5]) is 90%; in test [1] (setting [6]) it was 100%; in test [2] (setting [7]) it was 90%; in test [2] (setting [8]), 50%; in test [3] (setting [9]), 90%; in test [3] (setting [10]) it was 100%. For the same compound, the pest or weed control at 250 g/ha in test [4] (setting [11]) and in test [4] (setting [12]) was 80% throughout.

With `Cc1cc(C)c(C2C(=O)CC(CC(=O)NCc3ccccc3Br)C2=O)c(C)c1` (stereo not shown) [Compound B22], the pest or weed control at 250 g/ha in test [1] (setting [5]) came out at 80%; in test [1] (setting [6]) it was 90%; in test [2] (setting [7]) it was 20%; in test [2] (setting [8]), 100%; in test [3] (setting [9]) it was 80%; in test [3] (setting [10]), 90%. The pest or weed control at 250 g/ha in test [4] (setting [11]) and in test [4] (setting [12]) was 30% each time.

With `Cc1cc(C)c(C2C(=O)CC(CC(=O)NCc3cccc(Br)c3)C2=O)c(C)c1` (stereo not shown) [Compound B23], the pest or weed control at 250 g/ha in test [1] (setting [5]) is 90%; in test [1] (setting [6]) it was 100%; in test [2] (setting [7]), 70%; in test [2] (setting [8]), 60%; in test [3] (setting [9]), 90%; in test [3] (setting [10]) it was 90%. The pest or weed control at 250 g/ha in test [4] (setting [11]) stood at 60%; in test [4] (setting [12]), 70%.

`Cc1cc(-c2ncc(Cl)s2)cc(C)c1C1C(=O)CC(CC(=O)NC(C)(C)C)C1=O` (stereo not shown) [Compound B24]: the pest or weed control at 250 g/ha in test [1] (setting [5]) came out at 90%; in test [1] (setting [6]), 100%; in test [2] (setting [7]), 80%; in test [2] (setting [8]), 80%; in test [3] (setting [9]), 100%; in test [3] (setting [10]), 100%. Moreover, the pest or weed control at 250 g/ha in test [4] (setting [11]) came out at 90%; in test [4] (setting [12]), 80%.

As to `Cc1cc(C)c(C2CC(=O)C(CC(=O)NC(C)CC(C)C)C2=O)c(C)c1` (stereo not shown) [Compound B25], the pest or weed control at 250 g/ha was found to be 80% in test [1] (setting [5]); 90% in test [1] (setting [6]); 80% in test [2] (setting [7]); 70% in test [2] (setting [8]); 90% in test [3] (setting [9]); 90% in test [3] (setting [10]). Further, the pest or weed control at 250 g/ha in test [4] (setting [11]) was determined as 80%; in test [4] (setting [12]) it was 90%.

For the compound `Cc1cc(C)c(C2C(=O)CC(CC(=O)NC(C)C(C)(C)C)C2=O)c(C)c1` (stereo not shown) [Compound B26], the pest or weed control at 250 g/ha in test [1] (setting [5]) is 60%; in test [1] (setting [6]), 70%; in test [2] (setting [7]), 60%; in test [2] (setting [8]), 20%; in test [3] (setting [9]), 60%; in test [3] (setting [10]), 70%. Besides, the figures for the pest or weed control at 250 g/ha in test [4] (setting [11]) and in test [4] (setting [12]) were 70% and 60%, respectively.

Regarding `C=CCC(C)(C)NC(=O)CC1CC(=O)C(c2c(C)cc(C)cc2C)C1=O` (stereo not shown) [Compound B27], the pest or weed control at 250 g/ha in test [1] (setting [5]) came to 70%; in test [1] (setting [6]), 60%; in test [2] (setting [7]), 70%; in test [2] (setting [8]) it was 20%; in test [3] (setting [9]) it was 40%; in test [3] (setting [10]), 60%. For the same compound, the pest or weed control at 250 g/ha in test [4] (setting [11]) stood at 70%; in test [4] (setting [12]) it was 30%.

On to `Cc1cc(C)c(C2C(=O)CC(CC(=O)NC(C)CC3CCCC3)C2=O)c(C)c1` (stereo not shown) [Compound B28], for which the pest or weed control at 250 g/ha in test [1] (setting [5]) was 50%; in test [1] (setting [6]) it was 80%; in test [2] (setting [7]), 60%; in test [2] (setting [8]), 50%; in test [3] (setting [9]), 70%; in test [3] (setting [10]) it was 60%. In addition, the pest or weed control at 250 g/ha in test [4] (setting [11]) and in test [4] (setting [12]) was 50% each time.

As to `Cc1cc(C)c(C2C(=O)CC(CC(=O)NC(C)(C)c3ccccc3)C2=O)c(C)c1` (stereo not shown) [Compound B29], the pest or weed control at 250 g/ha came out at 70% in test [1] (setting [5]); 80% in test [1] (setting [6]); 60% in test [2] (setting [7]); 10% in test [2] (setting [8]); 70% in test [3] (setting [9]); 80% in test [3] (setting [10]). The pest or weed control at 250 g/ha was 70% in test [4] (setting [11]) and 30% in test [4] (setting [12]).

Regarding `Cc1cc(-c2nc(C#N)cs2)cc(C)c1C1C(=O)CC(CC(=O)NC(C)(C)C)C1=O` (stereo not shown) [Compound B30], the pest or weed control at 250 g/ha in test [1] (setting [5]) came to 30%; in test [1] (setting [6]) it was 70%; in test [2] (setting [7]), 90%; in test [2] (setting [8]) it was 70%; in test [3] (setting [9]), 80%; in test [3] (setting [10]), 70%. For the same compound, the figures for the pest or weed control at 250 g/ha in test [4] (setting [11]) and in test [4] (setting [12]) were 70% and 60%, respectively.

For the compound `Cc1cc(C)c(C2C(=O)CC(CC(=O)NC(C)C3CC3)C2=O)c(C)c1` (stereo not shown) [Compound B31], the pest or weed control at 250 g/ha was 80% in test [1] (setting [5]); 90% in test [1] (setting [6]); 80% in test [2] (setting [7]); 70% in test [2] (setting [8]); 80% in test [3] (setting [9]); 90% in test [3] (setting [10]). Besides, the values for the pest or weed control at 250 g/ha in test [4] (setting [11]) and in test [4] (setting [12]) were 80% and 100%, respectively.
